Source: patent US20020028938A1, “Prostaglandin endoperoxide H synthase biosynthesis inhibitors” (priority 1997, published 2002)

Tests used:
[1] = target: T1, Cox-1 in Monocyte U937 cells (Homo sapiens, UniProt P23219); experiment: Monocyte U937 cell Cox-1 assay; assay type: cell-based; details: read-out: U937 IC50 (parenthetical value)
T1 construct: endogenous in cells; host or cells: U937 monocyte cells (ATCC)
Experimental: Human amnionic WISH cells were grown to 80% confluence in 48 well plates. Following removal of the growth medium and two washings with Geys Balanced Salt Solutn, 5 ng IL-1β /ml (UBI, Lake Placid, N.Y.) was added to the cells with or without test compound in DMSO (0.01% v/v) in Neuman-Tytell Serumless Medium (GIBCO, Grand Island, N.Y.). Following an 18 hour incubation to allow for the maximal induction of PGHS-2, the conditioned medium was removed and assayed for PGE2 content by EIA analysis as described above.
Monocyte U937 (ATCC, Rockville, Md.) cells were grown in a similar fashion to the WISH cells. After incubation, the conditioned medium was removed and assayed for […] by EIA analysis as described above.

[2] = system: carrageenan induced paw edema; experiment: Carrageenan induced paw edema (CPE) in rats; assay type: in vivo; details: 10 mpk oral, rat, 3 hours after carrageenan; read-out: CPE % Inhib. @ 10 mpk
In short: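 Male Sprague-Dawley rats (170–190 g) dosed orally in PEG 400, 1 h before subplantar 0.1 ml 1% lambda carrageenan in right hindpaw. Plethysmographic paw volume at 0 and 3 h; edema as difference, % inhibition versus control mean (±SEM), Dunnett's test, ED50 by linear regression.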

[3] = system: air pouch prostaglandin biosynthesis (Cox-2); experiment: Carrageenan induced air pouch prostaglandin biosynthesis model (CAP); assay type: in vivo, rat; details: 4 h; 3 mpk, rat; read-out: CAP % Inhib. @ 3 mpk
In short: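 Male Sprague Dawley rats with dorsal air pouches (20 mL air day 0, 10 mL day 3) received 0.2% lambda carrageenan in saline into the pouch on day 7. Compounds dosed at 0.1 to 10 mg/kg 30 min before carrageenan; pouch lavaged 4 h later, prostaglandins measured by EIA. Percent inhibition versus control mean; ED50 by linear regression.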

T1 sequence (P23219 24-599): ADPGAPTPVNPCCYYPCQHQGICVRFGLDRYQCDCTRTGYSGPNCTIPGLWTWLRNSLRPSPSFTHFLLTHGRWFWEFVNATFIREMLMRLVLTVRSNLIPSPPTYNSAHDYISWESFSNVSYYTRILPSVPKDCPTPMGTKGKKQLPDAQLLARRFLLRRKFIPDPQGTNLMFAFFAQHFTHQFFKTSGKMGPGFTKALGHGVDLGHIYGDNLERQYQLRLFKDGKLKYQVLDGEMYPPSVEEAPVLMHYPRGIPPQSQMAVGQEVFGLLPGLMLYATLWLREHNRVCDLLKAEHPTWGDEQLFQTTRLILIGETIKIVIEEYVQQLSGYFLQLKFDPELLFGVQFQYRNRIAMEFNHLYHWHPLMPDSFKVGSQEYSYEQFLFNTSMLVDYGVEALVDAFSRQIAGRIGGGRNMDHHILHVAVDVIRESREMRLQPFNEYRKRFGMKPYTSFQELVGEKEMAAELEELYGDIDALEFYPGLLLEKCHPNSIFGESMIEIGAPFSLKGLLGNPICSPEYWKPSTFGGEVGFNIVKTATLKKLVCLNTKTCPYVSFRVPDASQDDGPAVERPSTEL

In the case of `NS(=O)(=O)c1ccc(-c2cnn(-c3ccc(F)cc3)c(=O)c2-c2ccc(F)cc2)cc1` [Example 89], the IC50 [1] is reported as 3.8 µM, the inhibition in vivo at 10 mg/kg [2] is reported as 45.5% and the inhibition in vivo at 3 mg/kg [3] is reported as 94%.
